Test results reported in US4910193A, “Treatment of gastrointestinal disorders” (Sandoz Ltd., priority 1987, dated 1990).
Counter-ions that a name gives are not always drawn. Like-named read-outs stand apart in the source and are kept apart here.

Experiments:
dopamine binding sites [1] = test: Binding to dopamine sites with tritiated haloperidol
Procedure: Several drugs e.g. metoclopramide are known for the treatment of gastrointestinal disorders (gut motility disorders). Action has been ascribed to opiates (e.g. loperamide), dopaminergic compounds (e.g. metoclopramide) although for most drugs the mode of the action is not well understood (see J. R. Malegeleda Scand. J. Gastroenterology, 19, Suppl. 96, 1984, pp. 115-121).
The compounds of the invention have insignificant action on dopamine binding sites, e.g. having an IC50 of […] or more using tritriated haloperidol.

5-HT reflex = conditions: in words; comparison drug; cited from earlier work
dopamine = conditions: in words; comparison drug; cited from earlier work
dopamine binding sites [2] = conditions: tritiated haloperidol; read-out: IC50 dopamine sites (literature); cited from earlier work
[3] = system: gastrointestinal motility induced by 5-hydroxytryptophan (5-HTP); test: Test C: inhibition of increase in gastrointestinal motility induced by 5-HTP; type: in vivo, mouse (male NMRI); conditions: Mus musculus, ip; inhibition of 5-HTP induced motility
Procedure: In a further test the inhibition of the compounds of the invention in inhibiting the increase in gastrointestinal motility induced by 5-hydroxytryptophan (5-HTP) was observed.
Male NMRI mice (18-32 g in weight) are deprived of food 20 hours before the test. Water is not limited. The animals are separated by a barrier from their straw and access to feces. At the beginning of the test the animals are separated in individual single cages and water is removed.
All animals were treated with the test compound or saline. I.p. administration was used. Injection volume was 0.1 ml/10 g. 30 minutes after pre-treatment 5-HTP or saline was administered. Injection volume 0.1 ml/10 g. Dose 3 mg/kg. At the same time charcoal was administered perorally (10% suspension in water; 0.1 ml/10 g). 45 minutes after the start of the experiment the animals were killed. The intestines from the stomach to the rectum were examined. For each animal the transit distance of the front of the charcoal mean along the intestine was measured. The distance was ascertained as a percentage of the whole intestinal length. Groups of at least 3 animals were used.

[4] = system: high affinity 5-HT receptor; test: Isolated longitudinal muscle of guinea pig ileum, 5-HT contraction, high affinity receptor
From the text: The isolated longitudinal muscle of the guinea pig ileum with its adhering myenteric plexus is a well established model which permits investigation of the mechanism of action of various neurotransmitters.
Male guinea pigs (200-400 g) were killed by a blow on the head and exsanguineated. A length of small intestine was removed about 2 cm from the ileo-caecal valve. The mesentery was carefully removed and the ileum was stretched over a glass rod. By stroking tangentially away from the mesenteric attachement with a wad of cotton wool, the longitudinal muscle layer was separated and stripped from the unterlying circular muscle. Longitudinal muscle strips, 3-4 cm length, were mounted in a 10 ml organ bath containing Tyrode solution at 37° C. and bubbled with 5% carbon dioxide in oxygen. The Tyrode solution was of the following composition (mmol/l): NaCl, 137.0; CaCl2, 1.8; KCl, 2.7; MgCl2, 1.05; NaHCO3, 11.9; NaH2 PO4, 0.4; glucose, 5.6. The strips were placed under a resting tension of 500 mg. Contractions were recorded with an isotonic pendulum lever. […]
Each concentration was left in contact with the tissue for 1 min. […] Inhibition constants were expressed in the form of pA2 values which were graphically determined according to conventional methods (Arunlakshana and Schild, 1959. McKay 1978). […]

[5] = biological target: T1, low affinity 5-HT receptor (Cavia porcellus, UniProt O70212); test: Isolated longitudinal muscle of guinea pig ileum, 5-HT contraction, low affinity receptor; conditions: read-out: pA2 (converted)
T1 construct: The isolated longitudinal muscle of the guinea pig ileum with its adhering myenteric plexus; from tissue; host or cells: longitudinal muscle strips of ileum with myenteric plexus, male guinea pigs
T1 sequence (O70212 20-490): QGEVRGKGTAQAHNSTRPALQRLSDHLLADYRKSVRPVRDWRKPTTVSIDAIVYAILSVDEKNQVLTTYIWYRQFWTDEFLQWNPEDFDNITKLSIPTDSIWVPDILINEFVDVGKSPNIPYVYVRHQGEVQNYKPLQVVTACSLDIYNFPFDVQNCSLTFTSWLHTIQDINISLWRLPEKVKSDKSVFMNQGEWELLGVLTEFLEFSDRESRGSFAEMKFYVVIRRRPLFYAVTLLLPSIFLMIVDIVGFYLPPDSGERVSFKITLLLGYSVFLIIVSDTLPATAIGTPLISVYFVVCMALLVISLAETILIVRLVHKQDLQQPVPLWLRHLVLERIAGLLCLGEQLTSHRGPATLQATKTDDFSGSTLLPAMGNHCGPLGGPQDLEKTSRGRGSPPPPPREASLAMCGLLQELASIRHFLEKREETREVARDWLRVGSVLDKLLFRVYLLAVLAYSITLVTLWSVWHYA
Procedure: Male guinea pigs (200-400 g) were killed by a blow on the head and exsanguineated. A length of small intestine was removed about 2 cm from the ileo-caecal valve. The mesentery was carefully removed and the ileum was stretched over a glass rod. By stroking tangentially away from the mesenteric attachement with a wad of cotton wool, the longitudinal muscle layer was separated and stripped from the unterlying circular muscle. Longitudinal muscle strips, 3-4 cm length, were mounted in a 10 ml organ bath containing Tyrode solution at 37° C. and bubbled with 5% carbon dioxide in oxygen. […] The strips were placed under a resting tension of 500 mg. Contractions were recorded with an isotonic pendulum lever. After equilibration for 30 min a set concentration of carbachol was applied in 10 min intervals until a consistent reaction was achieved.
Production of the concentration/reaction curve
Non-cumulative concentration-response curves for 5-HT were established by adding increasing concentrations of the agonist to the organ bath at intervals of at least 15 min. […] Each concentration was left in contact with the tissue for 1 min. […] The contractions expressed as percentage of the maximal response to 5-HT obtained from several preparations were plotted as mean values in order to obtain log-concentration-response curves.

[6] = system: muscle strips from different parts of the guinea pig stomach; test: Test A: field stimulation-induced contractions in guinea pig stomach muscle strips; parameters: species or system guinea pig (male Dunkin-Hartley)
From the text: The compounds of the invention facilitate field stimulation-induced contractions in muscle strips from different parts of the guinea pig stomach and are therefore indicated to increase decreased peristalic movements in the stomach and to enhance gastric emptying in vivo. The test is effected as follows:
Male Dunkin-Hartley guinea pigs, 340-450 g, which had been starved overnight, were killed by cervical transsection and the stomach removed and placed in Krebs-Henseleit solution (NaCl 118.0, KCl 4.75, KH2 PO4 1.2, MgSO4 1.2, CaCl2 2.5, glucose 10 mM). Segments were taken from the body (approximately 20 mm long, 3-4 mm wide) with dissection in a plane suitable to investigate tension changes in the circular muscle layer. Tissues were placed in 30 ml organ baths containing oxygenated (95% O2, 5% CO2) Krebs-Henseleit solution at 37° C. One gram tension was applied to the tissues which were allowed to equilibrate for 45-60 min. before electrical stimulation. […] Responses were measured as changes in gram tension, but to allow easier comparison between treatments, data was converted to show changes as percentage values. The significance of differences between control responses and those obtained in the presence of interacting drugs was assessed using the Mann-Whitney U test.

rabbit vagus = conditions: in words; cited from earlier work
[7] = system: chloera toxin-induced secretory diarrhea; parameters: species or system mouse (male NMRI); conditions: mouse, in vivo
rabbit heart = conditions: in words; cited from earlier work
[8] = system: conscious guinea pigs having stomachs made atonic; test: Test B: gastric emptying in conscious guinea pigs (X-ray of spheroids); type: in vivo, guinea pig; conditions: versus metoclopramide
Procedure: The compounds of the invention also induce gastric emptying as indicated in standard in vivo tests, e.g. in conscious guinea pigs having stomachs made atonic (i.e. having decreased peristaltic movements) by fasting and wherein the passage of glass spheroids was observed by X-ray techniques. The experiments is effected as follows:
Food was withdrawn for 14 hours before the measurement of gastric emptying. The experiment was conducted under low illumination with minimal noise and disturbance, and was carried out only by those experimentors who had daily contact with the guinea pigs and who carried out the initial training to accustom the guinea pigs to handling. Therefore, animals were subject to minimal stress. […] Gastric emptying was measured as the number of spheroids leaving the stomach.
Six guinea pigs were used at each dose level of drug and responses compared to those of guinea pigs receiving the appropriate vehicle. The significance of differences between drug and control responses was assessed using the Mann Whitney U test.

[9] = system: 5-HT3 receptors in the guinea pig ileum; conditions: counteracting 5-HT induced spasms; cited from earlier work
[10] = Properties of salt forms (solubility, stability); type: physicochemical; conditions: in words

CNc1cc(OC)c(C(=O)NC2CN3CCC2CC3)cc1Cl (centres unmarked) [Example 71]
IC50 (dopamine binding sites [1]): > 10000 nM

CN1[C@@H]2CC[C@H]1C[C@@H](OC(=O)C(CO)c1ccccc1)C2 (some centres unmarked) [atropine]
effect on the whole reflex (5-HT reflex): paralyse the whole reflex

CCN(CC)CCNC(=O)c1cc(Cl)c(N)cc1OC [metoclopramide]
dopamine action (dopamine): dopamine agonist action | IC50 (dopamine binding sites [2]): ~170 nM

CN1[C@@H]2CCC[C@H]1C[C@@H](OC(=O)c1cn(C)c3ccc(F)cc13)C2 [Compound G, 5-fluoro-1-methyl-indol-3-yl carboxylic acid endo-9-methyl-9-aza-bicyclo[3,3,1]non-3-yl ester]
ED50 [3]: 0.002 mg/kg

CN1[C@@H]2CCC[C@H]1C[C@@H](OC(=O)c1csc3ccccc13)C2 [Compound F, Benzo[b]thiophen-3-yl carboxylic acid endo-9-methyl-aza-bicyclo[3,3,1]non-3-yl ester]
pD'2 [4]: 5.9 | ED50 [3]: 0.025 mg/kg | Kb [5]: 0.398 nM

CN1[C@@H]2CC[C@H]1C[C@@H](OC(=O)c1c[nH]c3ccccc13)C2 [Compound E, Indol-3-yl carboxylic acid endo-8-methyl-8-aza-bicyclo-[3,2,1]oct-3-yl ester]
pD'2 [4]: 5.7 | EC (maximal response) ([6]; Cavia porcellus, field stimulation of stomach strips, read-out: concentration producing maximal response): 0.01 µM | times more active than metoclopramide (contraction) ([6]; versus metoclopramide): 100 times | action against 5-HT on rabbit vagus (rabbit vagus): antagonistic action against 5-HT | effect of increased dose on stomach contents [7]: did not lead to a reduction in the stomach contents | action against 5-HT on rabbit heart (rabbit heart): antagonistic action against 5-HT | ED50 [3]: 0.07 mg/kg | times more active than metoclopramide (gastric emptying) [8]: about 50 times | action at 5-HT3 receptors in guinea pig ileum [9]: competitive antagonist of the 5-HT3 receptors in the guinea pig ileum | Kb [5]: 12.6 nM

CN1[C@@H]2CCC[C@H]1C[C@@H](OC(=O)c1cn(C)c3ccc(F)cc13)C2 [hydrogen maleate of compound G]
solubility and stability properties of salt form [10]: especially advantageous properties, e.g. from the solubility and stability point of view

CN1[C@@H]2CCC[C@H]1C[C@@H](OC(=O)c1csc3ccccc13)C2 [hydrochloride of compound F]
solubility and stability properties of salt form [10]: especially advantageous properties, e.g. from the solubility and stability point of view
